Source: patent EP0462621A2, “Use of particular compounds for manufacture of pharmaceutical formulations for treatment against various parasites, mycoplasmas, other indications and other infections” (Prendergast, Patrick Thomas, priority 1990, dated 1991)

Key:
T. cruzi [1] = experiment: T. cruzi trypomastigote (TRY) in-vitro screen; type: cell-based
Description: In-vitro chemotherapy screens have for many years used models involving three stages of the T. cruzi life cycle: • (1) Epimastigote. Dividing populations are easily cultivated in a range of defined and semi-defined media, but are equivalent to a vector stage of the life cycle. • (2) Trypomastigote. These are isolated from a rodent host and can be maintained as a non-dividing population for 24-48 h in media. • (3) Amastigote. Dividing populations can be cultivated in muscle cells, fibroblasts and macrophages, following infection with trypomastigotes. After the initial infection, there is normally a period of 4-5 days during which the amastigotes divide before transforming, via the epimastigote stage, back to trypomastigotes which escape from the cell. Drug activity is measured during this 4-5 day period. A dividing host cell population, low infection rate, and the presence of trypomastigotes in the overlay can complicate the interpretation of results.

cytomegilovirus = experiment: M413 cells, CMV; type: cell-based, cytomegalovirus (CMV)
Description: Confluent monolayers of M413 cells (a type of dipliod human fibroblast cells) in 48 well microtiter plates were used. They were grown in Dulbecco's MEM (minimum essential medium) supplemented with 10% fetal bovine serum and 50 ug/ml gentamicin.
Stock cytomegalovirus (CMV) was diluted in a series of 10-fold dilutions in the above medium, and […] amounts were added to the wells of the microtiter plates and allowed to absorb virus for 90 minutes at 37 °C.
Unabsorbed virus was removed by aspiration and 0.5 ml of medium containing dilutions of drug was added to duplicate wells at each concentration of virus.
After incubating for 5 days, fresh medium was added to each well, no additional drug being included, and the plates were scored for cytopathic effects the next day. The viruses produce characteristic enlarged rounded cells in a cellular background that is completely devoid of such cells.
The data were expressed as the reciprocal of the greatest dilution producing any of the characteristic rounded cells (the "titer"), and the percent inhibition was calculated by comparing the experimental titer with the control titer, with intermediate results interpreted as those of Experiment la(a).
The procedure described for Experiment la(j) was followed with cytomegalovirus (CMV) substituted for MAB to HSV-1.

[2] = tested on: T.b. brucei, T.b. gambiense and T.b. rhodesiense; experiment: Procyclic trypomastigote (TRY) in-vitro screen; type: cell-based; note: key: - no/poor activity,; + fair/moderate activity,; ++ good/excellent activity
Description: (§1) Primary screening for new trypanocides has made extensive use of rodent systems, in which host survival time is a simple indicator of drug activity. In-vitro screens have used a variety of trypomastigote types (see Table 3, below). […] Most early in-vitro screens employed a short test in which bloodstream trypomastigotes were isolated from an infected rodent and maintained for up to 24 h in a simple drug-containing media. Two significant modifications of this technique include maintaining isolated bloodstream trypomastigotes in drug-containing media for 3-4 hours at 37° C in micro-titre plates and their subsequent viability assessed by the uptake of radiolabelled precursors or motility and infectivity to mice.
(§2) In-vitro and in-vivo models were used to test activities of a selection of many compounds. Those activities are summarized in Tables 1-3, showing variation between systems and species. Activities measured in the MP mo and HM mo models have shown the best correlation with results obtained in hamster and mouse models.

L donovani [3] = experiment: Amastigotes (AM) in mouse or human macrophages (mos), in-vitro; type: cell-based; conditions: Ld., Amastigote
Text: (§3) Amastigotes of Leishmania can be cultivated in a wide range of mammalian cells, some of which may be used in in-vitro screens. These include (1) a Sticker dog sarcoma (fibroblast) cell line, (2) transformed rodent macrophage cell lines, (3) primary isolated mouse peritoneal macrophages (MP mo), and (4) human monocyte-derived macrophages (HM mo). The methods are similar for all models. Amastigote or promastigote infected cells are maintained in a medium containing the drug for 4-7 days, at 37 C for L. donovani and 33-35 C for L. major and L. mexicana. Drug activity is then assessed by counting (I) the number of infected host cells and/or (II) the number of amastigotes/100 host cells.
as §2

L major/L mexicana [4] = experiment: as above; type: cell-based; conditions: Lm., Amastigote
Text: as §3, §2

L donovani [5] = experiment: Leishmania mouse/hamster models, in-vivo; conditions: Ld. Note: key: - no/poor activity,; + fair/moderate activity,; ++ good/excellent activity.
Text: as §2

L major/L mexicana [6] = experiment: Leishmania mouse/hamster models, in-vivo; conditions: Lm. Note: key: - no/poor activity,; + fair/moderate activity,; ++ good/excellent activity.
Text: as §2

[7] = tested on: T.b. brucei, T.b. gambiense and T.b. rhodesiense; experiment: African trypanosomiasis mouse model, in-vivo
Description: as §1, §2

[8] = Case study two: HIV positive patient, IPA orally; type: in vivo, human
Description: In another case study, […], a homosexual person, was diagnosed HIV positive in June, 1986. […] was also diagnosed as having hepatitis at that time. Beginning on May 7, 1990, IPA was administered orally to […] On May 7, 1990, […] was experiencing (1) weight loss, (2) night sweats, (3) thrush, (4) fungal infections, (5) pneumonia, (6) diarrhea, and (7) hairy leukoplakia.
Prior to treatment with IPA, V.T. had experienced diarrhea and night sweats for the previous six weeks. […] […] […] As of July 26, 1990, V.T.'s helper/suppressor ration was 0.93.

Epstern-Barr Virus (EBV) = experiment: P3HR1 cells, EBV, immunofluorescence; type: cell-based; conditions: P3HR1 cells in-vitro
Description: Experiments were carried out using concentrated P3HR1 […]. […] Infection of Raji cells by infectious EBV induces early antigens (EA) in the cells in proportion to the titer of infectious virus. EA was detected using a monoclonal antibody.
The assay was set up with Raji cells exposed for 2 hours to serial 10 fold dilutions of the P3HR1 virus. Excess virus was separated by centrifugation and removed. Aliquots of cells infected at each dilution were distributed into 12 well trays (0.5 ml/well), and 0.5 ml of medium containing twice the desired final medium concentration was added to each well.
At 24 and 72 hours, aliquots of each well were washed, added to Teflon® outlined wells on a glass slide, air dried to attach then to the glass, and then fixed with acetone-methanol (50:50). Standard immunofluorescence procedures were followed to quantify the percent of cells containing virus at each time, virus dilution and drug concentration.

L donovani [9] = experiment: Amastigote-promastigote (AM-PRO) transformation, in-vitro; type: cell-based; conditions: Ld.
T. cruzi [10] = experiment: T. cruzi mouse model, in-vivo
Text: as §2

With `CC(C)=CCNc1ncnc2c1ncn2[C@@H]1O[C@H](CO)[C@@H](O)[C@H]1O` [IPA, N^6-(Δ^2-isopentenyl) adenosine] the “activity, TRY” value (T. cruzi [1]; T. cruzi strain Sonya) was “+ (Y,Sonya)”, the “activity, TRY” value (T. cruzi [1]; T. cruzi strain Y) was “+ (Y,Sonya)” and the “levels of cytomegilovirus in cells in-vitro” value (cytomegilovirus) was “reduces”. For the same molecule, the “activity, procyclic TRY” value [2] was “+”, the “Activity, AM in mouse or human mos” value (L donovani [3]) was “+ +” and the “Activity, AM in mouse or human mos” value (L major/L mexicana [4]) was “+ +”. For the same molecule, the “Activity, mouse/ hamster models” value (L donovani [5]) was “+”, the “Activity, mouse/ hamster models” value (L major/L mexicana [6]) was “-” and the “activity, mouse model” value [7] was “+ +”. For the same molecule, the toxic side effects [8] was “no permanent toxic side effects”, the weight stabilized at [8] was 133 lbs and the hairy leukoplakia ([8]; IPA orally) was “complete remission”. The helper/suppressor ratio ([8]; July 26, 1990) was 0.93, the weight ([8]; June 11, 1990, 119 lbs on May 7, 1990 (start of IPA)) was 132 lbs and the helper/suppressor ratio ([8]; June 21, 1990, 0.53 on May 7, 1990) was 0.65. The T4 count ([8]; June 21, 1990, 207 on May 7, 1990) was 330, the “time in which diarrhea and night sweats cleared” value ([8]; after the beginning of the treatment, symptoms for the previous six weeks) was ≤ 48 h and the weight gain ([8]; over the first month of treatment) was “about 0.5 lbs per day”. For the same molecule, the “levels of Epstern-Barr Virus (EBV)” value (Epstern-Barr Virus (EBV)) was “reduces”, the “Activity, AM-PRO transform-ation” value (L donovani [9]) was “+ +” and the “activity, mouse model” value (T. cruzi [10]; T. cruzi strain Sonya) was “+”. For the same molecule, the “activity, mouse model” value (T. cruzi [10]; T. cruzi strain Y) was “++”.
